In ChEMBL document CHEMBL1134192, “Targeting RNA with peptidomimetic oligomers in human cells” (Bioorg Med Chem Lett, 2001):

Species on record: Homo sapiens
Test: Concentration that inhibits transcriptional activation of Tat protein in human cells
Type: functional, cell-based

IC50 [nM] | SMILES
1000 | NCCCC[C@H](CNC(=O)N[C@H](CCCCN)CNC(=O)N[C@H](CCCN=C(N)N)CNC(=O)N[C@H](CCCN=C(N)N)CNC(=O)N[C@H](CCC(N)=O)CNC(=O)N[C@H](CCCN=C(N)N)CNC(=O)N[C@H](CCCN=C(N)N)CNC(=O)N[C@H](CCCN=C(N)N)CNC(=O)[C@@H](N)Cc1ccc(O)cc1)NC(=O)NC[C@@H](CCCN=C(N)N)NC(=O)NCCNC(N)=O
500 | N=C(N)NCCC[C@@H](COC(=O)N[C@@H](CCCCN)COC(=O)N[C@@H](CCCCN)COC(=O)N[C@@H](CCCN=C(N)N)COC(=O)N[C@@H](CCCN=C(N)N)COC(=O)N[C@@H](CCC(N)=O)COC(=O)N[C@@H](CCCN=C(N)N)COC(=O)N[C@@H](CCCN=C(N)N)COC(=O)N[C@@H](CCCN=C(N)N)C(=O)O)NC(=O)OCCNC(=O)[C@@H](N)Cc1ccc(O)cc1
